# Test results as given in PMC4015918, “Conjugation to a SMAC mimetic potentiates sigma-2 ligand induced tumor cell death in ovarian cancer” (Molecular Cancer, 2014).
# Columns and labels:
# Assay type in all cases: cell-based
# [1] = system: Hey A8 cells; test: Caspase-Glo caspase 3, 8 and 9 activity in Hey A8 cells; conditions: 24 hours
# Method: Caspase 3, 8 and 9 activities were measured using Caspase-Glo® Assay Systems according to the manufacturer’s instructions (Promega, Madison, WI). Briefly, the assay systems are based on caspase-specific substrates, which are activated by cleavage, resulting in caspase specific luminescence signals. HeyA8 cells were plated at a density of 1 × 10^4 in white 96 well, clear bottom plates for 24 hours before treatment. Cells were treated with different concentrations of SW IV-134. Caspase 3, 8 and 9 assays were performed by adding 100 μl of caspase reagents to each well. The contents were mixed using a plate shaker for 30 seconds and incubated at room temperature for 90 minutes. Luminescence signal was measured using a multi-mode microplate reader (BioTek, Winooski, VT).
# Supplementary file 1476-4598-13-50-S3.pdf: Additional file 3: Figure S2 SW IV-134 induces caspase activation in ovarian cancer. Caspase 3, 8 and 9 activities were measured in Hey A8 cells using Caspase-Glo® Assay Systems (Promega). Hey A8 cells were treated with SW IV-134 at indicated drug concentrations for 24 hours. Caspase assays were performed by adding 100 μl lysis buffer containing the substrates for the respective caspase to be assayed. Luminescence signal intensities were recorded using a multi-mode microplate reader (BioTek). […] (A) caspase 8; (B) caspase 9; and (C) caspase 3. p < 0.001 for all analyses, one-way ANOVA. […]
# [2] = system: SKOV3 cells; test: Annexin V binding (apoptosis), flow cytometry; conditions: SKOV3 cells, 3, 6 and 10 μM, 16 hours
# Method: SKOV3 cells were treated with different concentrations of SW IV-134 (3 μM, 6 μM, and 10 μM) for 16 hours. Staining was performed using the Annexin V Apoptosis Detection Kit (BioLegend, San Diego, CA) according to the manufacturer’s instructions. The apoptosis rate was determined by flow cytometry (FACSCalibur, BD Biosciences, San Jose, CA).
# Supplementary file 1476-4598-13-50-S4.pdf: Additional file 4: Figure S3 Flow cytometric determination of apoptosis. SKOV3 cells were treated with increasing concentrations of SW IV-134. Untreated cells served as a negative staining control. The cells were then assessed for apoptosis induction by flow cytometry following staining with propidium iodide/Annexin V. Click here for file
# [3] = system: TNFα mRNA; test: Quantitative RT-PCR of TNFα mRNA; conditions: SKOV3 cells, 1 μM and 3 μM, 4-24 hours, normalized to GAPDH; maximal at 24 hours
# Method: (§1) Figure 5 SW IV-134 induces activation of the TNFα-dependent extrinsic death pathway. (A) Quantitative real-time PCR analysis of TNFα mRNA expression was done on RNA samples derived from SKOV3 cells treated with SW IV-134 (1 μM and 3 μM) for indicated time periods. All values were normalized to a GAPDH internal control (p < 0.0001, one-way ANOVA). (B) SKOV3 cells were treated with SW IV-134 (1 μM and 3 μM) and cell-culture supernatants were collected at 4, 12, and 24 hours after treatment, and subsequently examined by anti-TNFα ELISA according to manufacturer’s instructions (p < 0.0001, one-way ANOVA). (C) SKOV3 cells were treated with SW IV-134 at indicated doses either alone or in the presence of anti-TNFα blocking antibody for 18 hours. Cell viability was determined as described in the experimental methods (p < 0.019, Student’s t-test).
# SKOV3 cells were treated with SW IV-134 (1 μM, 3 μM) or vehicle-control for 4 hours, 12 hours, and 24 hours. At the end of each treatment, cells were harvested and total RNA was isolated using TRIzol reagent (Invitrogen, Grand Island, NY) and RT-PCR performed as per the protocol described before. Briefly, one microgram of RNA from each sample was reverse transcribed to cDNA with Retroscript (Ambion, Austin, TX). […] TNFα data were normalized for expression with GAPDH, and results were expressed as fold change over untreated controls.
# [4] = system: TNFα; test: TNFα ELISA of cell culture supernatants; conditions: SKOV3 conditioned medium, 1 μM and 3 μM
# Method: as §1
# SKOV3 cells were treated with SW IV-134 (1 μM and 3 μM). Cell culture supernatants were collected at 4, 12, and 24 hours after treatment. Medium was collected, floating cells were removed by centrifugation at 1200 × g for 5 minutes, and samples were frozen at -20°C until analysis. TNFα ELISA was performed using a quantitative high sensitivity sandwich immunoassay from eBioscience (San Diego, CA) as per the manufacturer’s instructions.
smiles,measurement,setting,value
COc1ccc(C)cc1NC(=O)OC1CC2CCCC(C1)N2CCCCCCCCCCN[C@@H](C)C(=O)N[C@H](C(=O)N1CCC[C@H]1C(=O)N[C@@H]1CCCc2ccccc21)C(C)(C)C (stereo partly drawn) [SW IV-134],"Caspase 3, 8 and 9 activities (fold over DMSO control)",[1],significant increases in caspase activities
same,Annexin V binding,[2],increased Annexin V binding relative to the untreated control cells in a dose dependent manner
same,Increase in TNFα mRNA levels compared to untreated cells,[3],20-50 fold
same,TNFα protein secretion,[4]; 4 hours,undetectable
same,TNFα protein secretion,[4]; 12 hours,mildly elevated
same,TNFα protein secretion,[4]; 24 hours,highest levels
